Source: US20250110152A1, “METHOD FOR CHARACTERIZING INTERACTION FORCE BETWEEN LIGNIN AND CELLULASE” (NANJING FORESTRY UNIVERSITY, priority 2022, published 2025)

Test system: cellulase
Assay: AFM test of lignin-cellulase interaction force and dissociation rate in liquid phase environment (cellulase-modified AFM probe, lignin film)
Settings: for interaction force between lignin / lignin model substance and cellulase: AFM force-displacement curves, liquid phase; for Feq: system lignin (model substance)-cellulase

In the case of `COc1cccc(OC)c1O` [S], the “interaction force between lignin / lignin model substance and cellulase” value is reported as 4.76 nN, the “most likely dissociation force” value (loading rate 3 pN/s) is reported as 3.02 nN and the “most likely dissociation force” value (loading rate 5 pN/s) is reported as 4.05 nN. For the same compound, the “most likely dissociation force” value (loading rate 7.89 pN/s) was 4.76 nN, the “most likely dissociation force” value (loading rate 12 pN/s) was 5.21 nN and the “most likely dissociation force” value (loading rate 20 pN/s) was 8.54 nN. The Feq was 4.76 nN.
`COc1cc(C(O)C(CO)Oc2ccccc2OC)ccc1O` (stereo not shown) [GG] was tested, and the “interaction force between lignin / lignin model substance and cellulase” value was 2.59 nN, the “most likely dissociation force” value (loading rate 5 pN/s) was 1.65 nN and the “most likely dissociation force” value (loading rate 10 pN/s) was 1.92 nN. For the same compound, the “most likely dissociation force” value (loading rate 15 pN/s) was 2.27 nN, the “most likely dissociation force” value (loading rate 20 pN/s) was 2.46 nN and the “most likely dissociation force” value (loading rate 24.24 pN/s) was 2.59 nN. The Feq was 2.59 nN.
With `COc1cc(/C=C/CO)cc(OC)c1O` [S—OH] the “interaction force between lignin / lignin model substance and cellulase” value was 4.31 nN, the “most likely dissociation force” value (loading rate 1 pN/s) was 2.66 nN and the “most likely dissociation force” value (loading rate 3 pN/s) was 3.99 nN. The “most likely dissociation force” value (loading rate 5.79 pN/s) was 4.31 nN, the “most likely dissociation force” value (loading rate 10 pN/s) was 4.58 nN and the “most likely dissociation force” value (loading rate 18 pN/s) was 6.58 nN. The Feq was 4.31 nN.
For `O=C(O)/C=C/c1ccc(O)cc1` [H], the “interaction force between lignin / lignin model substance and cellulase” value was 12.52 nN, the “most likely dissociation force” value (loading rate 5 pN/s) was 5.00 nN and the “most likely dissociation force” value (loading rate 7 pN/s) was 5.49 nN. The “most likely dissociation force” value (loading rate 10 pN/s) was 10.04 nN, the “most likely dissociation force” value (loading rate 15 pN/s) was 11.29 nN and the “most likely dissociation force” value (loading rate 20 pN/s) was 12.52 nN. For the same compound, the Feq was 12.52 nN.
`COc1ccccc1O` [GA] was tested, and the “interaction force between lignin / lignin model substance and cellulase” value was 0.58 nN, the “most likely dissociation force” value (loading rate 3 pN/s) was 0.39 nN and the “most likely dissociation force” value (loading rate 4 pN/s) was 0.41 nN. The “most likely dissociation force” value (loading rate 6.61 pN/s) was 0.58 nN, the “most likely dissociation force” value (loading rate 9 pN/s) was 0.63 nN and the “most likely dissociation force” value (loading rate 10 pN/s) was 0.88 nN. It also gave a Feq of 0.58 nN.
`COc1ccccc1OC(CO)C(O)c1cc(OC)c(O)c(OC)c1` (stereo not shown) [SG] was tested, and the “interaction force between lignin / lignin model substance and cellulase” value was 11.69 nN, the “most likely dissociation force” value (loading rate 10 pN/s) was 7.65 nN and the “most likely dissociation force” value (loading rate 13 pN/s) was 8.25 nN. For the same compound, the “most likely dissociation force” value (loading rate 15 pN/s) was 8.80 nN, the “most likely dissociation force” value (loading rate 18.64 pN/s) was 11.69 nN and the “most likely dissociation force” value (loading rate 23 pN/s) was 13.40 nN. The Feq was 11.69 nN.
For `CCCc1ccc(O)c(OC)c1` [G], the “interaction force between lignin / lignin model substance and cellulase” value was 0.97 nN, the “most likely dissociation force” value (loading rate 1 pN/s) was 0.39 nN and the “most likely dissociation force” value (loading rate 3 pN/s) was 0.87 nN. For the same compound, the “most likely dissociation force” value (loading rate 5.74 pN/s) was 0.97 nN, the “most likely dissociation force” value (loading rate 7 pN/s) was 1.06 nN and the “most likely dissociation force” value (loading rate 12 pN/s) was 1.25 nN. The Feq was 0.97 nN.
